Test results taken from patent publication US20160031909A1, “PORPHYRAZINE OPTICAL AND DUAL OPTICAL/ MR CONTRAST AND THERAPEUTIC AGENTS” (HOFFMAN/BARRETT, LLC, priority 2013, published 2016).

Assays:
Water solubility = assay type: physicochemical
Description: The pz platform is diol pz 285, which was prepared and activated for nucleophilic substitution by arenesulfonylation to produce bis-tosylate pz 286 as previously described (13). Subsequent nucleophilic substitution of pz 286 with excess sodium azide gave diazide pz 288, which was suitable for conjugation via cycloaddition reactions with the alkyne-functionalized Gd595. (Scheme 1). The use of catalytic copper(II) sulfate in this conjugation reaction partially metallates the pz core. To address this issue, pz 288 either was metallated with ZnCl2 prior to reaction with the alkyne or a stoichiometric amount of the […] catalyst was used to ensure that the pz core was completely cuprated. Standard cycloaddition reaction conditions were subsequently used to conjugate metallated pz diazides with Gd595 to produce Zn-Pz-Gd(III) and Cu-Pz-Gd(III) conjugates, which were isolated by preparative HPLC in 52% and 57% isolated yields, respectively. Trace amounts of Zn-Pz-Gd(III) were transmetallated to Cu-Pz-Gd(III), but this small amount was removed during purification.

[1] = Relaxation time measurements (longitudinal relaxivity r1); assay type: physicochemical
Description: The efficiency of a contrast agent in reducing the longitudinal relaxation time of water protons is defined in terms as relaxivity (mM^−1 s^−1) (14). It has been predicted by Solomon-Bloembergen-Morgan theory that a slow molecule tumbling of an MRI agent causes an increase in rotational correlation time, Tr, which in turn results in increase in relaxivity (14, 15). A common approach to increase relaxivity by slowing down the molecular tumbling is to attach Gd(III) complexes to a macromolecule through rigid linkages (12,16). The relaxivity of the monomeric DOTA-Gd(III) (DOTA is 1,4,7,10-tetraazacyclododecane-N,N,N″,N″-tetraacetic acid) used in the clinic is shown for comparison (17). […] Both the Zn-Pz-Gd(III) and Cu-Pz-Gd(III) had higher longitudinal relaxivity than DOTAGd(III).
Solutions of M-Pz-Gd(III) (M=Zn, Cu) conjugates were dissolved in 500 μL of filtered, deionized H20 (18.2 MΩ·cm) for T1 acquisition. Relaxation times were measured on a Bruker mq60 NMRanalyzer equipped with Minispec v2.51 Rev.00/NT software (Bruker Biospin, Billerica, Mass., USA) operating at 1.41 T (60 MHz) and 37° C. T1 relaxation times were measured using an inversion recovery pulse sequence (T1—ir_mb) using the following parameters: 4 scans per point, 10 data points for fitting, mono-exponential curve fitting, phase cycling, 10 ms first pulse separation, and a recycle delay and final pulse separation≧5 T1. The gadolinium concentrations of each solution were determined using ICP-MS. The inverse of the longitudinal relaxation time (1/ T1, s^−1) was plotted against gadolinium concentration (mM) and fitted to a straight line with an R^2>0.99. The slope of the fitted line was recorded as the relaxivity, r1.

MDA-MB-231 cells = assay: In vitro cellular uptake, Gd(III) content by ICP-MS; assay type: cell-based; conditions: MDA-MB-231, 24 hours, compared with equivalent DOTA-Gd(III)
Description: Breast tumor cells (MDA-MB-231) were treated with M-Pz-Gd(III) complexes at varying concentrations for 24 hours, washed, digested in acid, and Gd(III) content was measured by ICP-M S (FIG. 1). An M-Pz-Gd(III) dose of 50 μM corresponds to an overall Gd(III) dose of 100 μM because two Gd(III) ions are present per molecule. Cells also were treated with an equivalent amount of DOTA-Gd(III), an agent known not to cross cell membranes.
After cell harvesting, an aliquot of the cell suspensions was mixed with Guava ViaCount reagent and allowed to stain at room temperature for at least 5.0 minutes (no longer than 20 minutes). Stained samples were vortexed for 10 seconds and counted. Percent cell viability was determined via manual analysis using a Guava EasyCyte Mini Personal Cell Analyzer (PCA) and ViaCount software module. For each sample, 1000 events were acquired with dilution factors that were determined based upon optimum machine performance (about 25-70 cells/μL).
Quantification of Gd was accomplished using ICP-MS of acid digested samples. Solution samples were digested in ACS reagent grade nitric acid (70%, Sigma, St. Louis, Mo., USA) and incubated in a water bath at 70° C. for at least 2 hours to allow for complete sample digestion. […]

## Cu[Pz(C19H28N8O7Gd)2]. Pz=18,21-bis(2-(1H-1,2,3-triazole-4-yl) ethoxy)-tris-[1,4-dioxino[g,l,q](2R,3R)-2,3-dimethoxy-2,3-dimethyll 25H,27H-benzo[b]porphyrazine; C19H28N8O7Gd=N-methyl-2-aminoacetamide-4,7,10-tris(carboxymethyl)-1,4,7,10-tetraazacyclododecylgadolinium(III)) [Cu-Pz-Gd(III)]
Water solubility
  water solubility: freely water soluble
[1]; compared with clinically-used monomeric DOTA-Gd(III)
  solution-phase ionic relaxivity relative to DOTA-Gd(III): about four times greater
[1]; per Gd(III), water, 1.41 T (60 MHz), 37° C.
  Ionic r1: 11.5 mM^−1 S^−1
[1]; per molecule (2 Gd(III)), water, 1.41 T (60 MHz), 37° C.
  Molecular r1: 23.0 mM^−1 S^−1
[1]; text of b56, unit inferred
  solution phase molecular relaxivity (r1): 23 mM⁻¹ s⁻¹
MDA-MB-231 cells
  Cellular uptake, Gd(III) content per cell: two-fold increase
